# In patent US20230407243A1, “GENETIC PLATFORM TO INVESTIGATE THE FUNCTIONS OF BACTERIAL DRUG EFFLUX PUMPS” (priority 2022, published 2023):
# Read-outs that look alike come from different tables or passages of the source.
# Columns and labels:
# Format in all cases: cell-based, Escherichia coli
# EKO-35 acrBD408A = system: EKO-35 acrBD408A
# Experimental: (§1) Synergy measurement using checkerboard analysis was performed in 96-well microtiter plates using the microdilution broth method, according to CLSI guidelines (Patel J. B., 2015). The cell inocula were prepared using the colony resuspension method. The minimum inhibitory concentrations (MICs) were defined as the lowest concentration that provided no growth, as determined by measurement of the OD600nm using a Synergy H1 microplate reader (BioTek). Susceptibility testing was performed in MHB II with a final volume of 100 μL. PAI3N (Bachem Americas) was solubilized in MHB II. […] Solvent controls were included in each plate.
# (§2) The Fractional Inhibitory Concentration Index (FICI) was used to assess the synergy of PAI3N in combination with different antibiotics. The FICI represents the ΣFIC of each drug. The FICI for each drug was calculated using the following formula: FICI=FICA+FICB=(CA/MICA)+(CB/MICB). Where MICA and MICB are the MICs of drugs A (PAI3N/NMP) and B (antibiotic) alone, and CA and CB are the MICs of the drugs in combination. The effects of PAβN or NMP in combination with antibiotics were classified as: synergistic (FICI<0.5), additive (FICI>0.5-1.0), indifferent (FICI>1.0-2.0), and antagonistic (FICI>2.0). Fold increases in resistance provided by efflux pumps were calculated by dividing the MIC values of strains expressing efflux pumps by the MIC value of EKO-35.
# EKO-35 = system: EKO-35
# Experimental: as §1, §2
# wild-type E. coli K-12 = system: wild-type E. coli K-12
# Experimental: as §1, §2
# ΔtolC-Pore = system: ΔtolC-Pore
# Experimental: as §1, §2
# ΔtolC = system: ΔtolC
# Experimental: as §1, §2
# [1] = system: EKO-35 strains producing different efflux pumps (EKO-35 araC::X); assay: Checkerboard synergy (FICI) of PAβN or NMP with antibiotics
# Experimental: as §1, §2
# [2] = system: EKO-35 porinated strain expressing acrF (AcrEF); assay: Checkerboard synergy (FICI), porinated strain
# How it was run: (§3)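 Interaction of PAβN or NMP with antibiotics is scored as FICI = CA/MICA + CB/MICB, from MICs (no growth, OD600) in MHB II checkerboard microdilution following CLSI. Solvent controls accompany every plate.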
# wild-type K-12-Pore = assay: Checkerboard synergy (FICI), porinated strain
# How it was run: as §3
# [3] = EKO-35 acrBD408A, PAβN + antibiotic
# [4] = strain EKO-35 acrBD408A, NMP + antibiotic
# [5] = strain EKO-35, NMP + antibiotic
# [6] = strain ΔtolC Pore, NMP + antibiotic
# [7] = EKO-35 acrEF, PAβN + antibiotic
# [8] = strain EKO-35 acrD, NMP + antibiotic
# [9] = EKO-35 acrEF Pore, PAβN + antibiotic
# [10] = strain EKO-35 acrEF Pore, NMP + antibiotic
# [11] = strain K-12 Pore, NMP + antibiotic
smiles,measurement,setting,value
Cc1onc(-c2ccccc2)c1C(=O)N[C@@H]1C(=O)N2[C@@H]1SC(C)(C)[C@@H]2C(=O)O [oxacillin],FICI,"EKO-35 acrBD408A; EKO-35 acrBD408A, NMP + antibiotic",2.000
same,Effect,EKO-35 acrBD408A; [3],Synergistic
same,FICI,EKO-35 acrBD408A; [3],0.185
same,MICb Alone,"EKO-35 acrBD408A; EKO-35 acrBD408A, antibiotic alone (PAβN checkerboard)",1 µg/mL
same,MICb Combined,"EKO-35 acrBD408A; EKO-35 acrBD408A, antibiotic in combination with PAβN",0.06 µg/mL
same,Effect,EKO-35 acrBD408A; [4],— (indifferent (FICI >1.0))
same,FICI,EKO-35 acrBD408A; [4],2.000
same,MICb Alone,"EKO-35 acrBD408A; strain EKO-35 acrBD408A, antibiotic alone",0.13 µg/mL
same,MICb Combined,"EKO-35 acrBD408A; strain EKO-35 acrBD408A, antibiotic in combination with NMP",0.13 µg/mL
same,Effect,"EKO-35; EKO-35, NMP + antibiotic",Additive
same,FICI,"EKO-35; EKO-35, NMP + antibiotic",0.510
same,Effect,"EKO-35; EKO-35, PAβN + antibiotic",Synergistic
same,FICI,"EKO-35; EKO-35, PAβN + antibiotic",0.323
same,MICb Alone,"EKO-35; EKO-35, antibiotic alone (PAβN checkerboard)",0.5 µg/mL
same,MICb Combined,"EKO-35; EKO-35, antibiotic in combination with PAβN",0.13 µg/mL
same,interaction of PAβN in combination with the labelled antibiotic (FICI),"EKO-35; efflux-deficient strains EKO-35, EKO-35 acrBD408A, ΔtolC",synergized
same,Effect,EKO-35; [5],Additive (additive (FICI >0.5-1.0))
same,FICI,EKO-35; [5],0.510
same,MICb Alone,"EKO-35; strain EKO-35, antibiotic alone",0.5 µg/mL
same,MICb Combined,"EKO-35; strain EKO-35, antibiotic in combination with NMP",0.13 µg/mL
same,Effect,"wild-type E. coli K-12; K-12, NMP + antibiotic",Synergistic
same,FICI,"wild-type E. coli K-12; K-12, NMP + antibiotic",0.375
same,Effect,"wild-type E. coli K-12; K-12, PAβN + antibiotic",Synergistic
same,FICI,"wild-type E. coli K-12; K-12, PAβN + antibiotic",0.188
same,MICb Alone,"wild-type E. coli K-12; K-12, antibiotic alone (PAβN checkerboard)",512 µg/mL
same,MICb Combined,"wild-type E. coli K-12; K-12, antibiotic in combination with PAβN",32 µg/mL
same,Effect,"wild-type E. coli K-12; strain K-12, NMP + antibiotic",Synergistic (Synergy (FICI ≤0.5))
same,FICI,"wild-type E. coli K-12; strain K-12, NMP + antibiotic",0.375
same,MICb Alone,"wild-type E. coli K-12; strain K-12, antibiotic alone",512 µg/mL
same,Effect,ΔtolC-Pore; [6],Additive (additive (FICI >0.5-1.0))
same,FICI,ΔtolC-Pore; [6],0.531
same,MICb Alone,"ΔtolC-Pore; strain ΔtolC Pore, antibiotic alone",1 µg/mL
same,MICb Combined,"ΔtolC-Pore; strain ΔtolC Pore, antibiotic in combination with NMP",0.5 µg/mL
same,Effect,"ΔtolC-Pore; ΔtolC Pore, NMP + antibiotic",Additive
same,FICI,"ΔtolC-Pore; ΔtolC Pore, NMP + antibiotic",0.531
same,Effect,"ΔtolC-Pore; ΔtolC Pore, PAβN + antibiotic",Additive
same,FICI,"ΔtolC-Pore; ΔtolC Pore, PAβN + antibiotic",0.740
same,MICb Alone,"ΔtolC-Pore; ΔtolC Pore, antibiotic alone (PAβN checkerboard)",0.25 µg/mL
same,MICb Combined,"ΔtolC-Pore; ΔtolC Pore, antibiotic in combination with PAβN",0.06 µg/mL
same,Effect,"ΔtolC; strain ΔtolC, NMP + antibiotic",Additive (additive (FICI >0.5-1.0))
same,FICI,"ΔtolC; strain ΔtolC, NMP + antibiotic",0.531
same,MICb Alone,"ΔtolC; strain ΔtolC, antibiotic alone",1 µg/mL
same,MICb Combined,"ΔtolC; strain ΔtolC, antibiotic in combination with NMP",0.5 µg/mL
same,Effect,"ΔtolC; ΔtolC, NMP + antibiotic",Additive
same,FICI,"ΔtolC; ΔtolC, NMP + antibiotic",0.531
same,Effect,"ΔtolC; ΔtolC, PAβN + antibiotic",Synergistic
same,FICI,"ΔtolC; ΔtolC, PAβN + antibiotic",0.313
same,MICb Alone,"ΔtolC; ΔtolC, antibiotic alone (PAβN checkerboard)",1 µg/mL
same,MICb Combined,"ΔtolC; ΔtolC, antibiotic in combination with PAβN",0.25 µg/mL
same,Effect,"[1]; EKO-35 acrB, NMP + antibiotic",Additive
same,Effect,"[1]; EKO-35 acrB, PAβN + antibiotic",Synergistic
same,FICI,"[1]; EKO-35 acrB, PAβN + antibiotic",0.125
same,MICb Alone,"[1]; EKO-35 acrB, antibiotic alone (PAβN checkerboard)",1024 µg/mL
same,MICb Combined,"[1]; EKO-35 acrB, antibiotic in combination with PAβN",64 µg/mL
same,Effect,"[1]; EKO-35 acrD, NMP + antibiotic",Additive
same,FICI,"[1]; EKO-35 acrD, NMP + antibiotic",0.750
same,Effect,"[1]; EKO-35 acrD, PAβN + antibiotic",Synergistic
same,FICI,"[1]; EKO-35 acrD, PAβN + antibiotic",0.156
same,MICb Combined,"[1]; EKO-35 acrD, antibiotic in combination with PAβN",16 µg/mL
same,Effect,"[1]; EKO-35 acrEF, NMP + antibiotic",Synergistic
same,Effect,[1]; [7],Synergistic
same,FICI,[1]; [7],0.133
same,MICb Alone,"[1]; EKO-35 acrEF, antibiotic alone (PAβN checkerboard)",256 µg/mL
same,MICb Combined,"[1]; EKO-35 acrEF, antibiotic in combination with PAβN",2 µg/mL
same,Effect,"[1]; strain EKO-35 acrB, NMP + antibiotic",Additive (additive (FICI >0.5-1.0))
same,MICb Combined,"[1]; strain EKO-35 acrB, antibiotic in combination with NMP",16 µg/mL
same,Effect,[1]; [8],Additive (additive (FICI >0.5-1.0))
same,FICI,[1]; [8],0.750
same,MICb Combined,"[1]; strain EKO-35 acrD, antibiotic in combination with NMP",32 µg/mL
same,Effect,"[1]; strain EKO-35 acrEF, NMP + antibiotic",Synergistic (Synergy (FICI ≤0.5))
same,MICb Alone,"[1]; strain EKO-35 acrEF, antibiotic alone",256 µg/mL
same,MICb Combined,"[1]; strain EKO-35 acrEF, antibiotic in combination with NMP",64 µg/mL
same,FICI,"[2]; EKO-35 acrEF Pore, NMP + antibiotic",1.000
same,Effect,[2]; [9],Synergistic
same,FICI,[2]; [9],0.500
same,MICb Alone,"[2]; EKO-35 acrEF Pore, antibiotic alone (PAβN checkerboard)",4 µg/mL
same,MICb Combined,"[2]; EKO-35 acrEF Pore, antibiotic in combination with PAβN",1 µg/mL
same,Effect,[2]; [10],— (indifferent (FICI >1.0))
same,FICI,[2]; [10],1.000
same,MICb Alone,"[2]; strain EKO-35 acrEF Pore, antibiotic alone",2 µg/mL
same,MICb Combined,"[2]; strain EKO-35 acrEF Pore, antibiotic in combination with NMP",1 µg/mL
same,Effect,"wild-type K-12-Pore; K-12 Pore, NMP + antibiotic",Synergistic
same,FICI,"wild-type K-12-Pore; K-12 Pore, NMP + antibiotic",0.266
same,Effect,"wild-type K-12-Pore; K-12 Pore, PAβN + antibiotic",Additive
same,FICI,"wild-type K-12-Pore; K-12 Pore, PAβN + antibiotic",0.750
same,MICb Alone,"wild-type K-12-Pore; K-12 Pore, antibiotic alone (PAβN checkerboard)",32 µg/mL
same,MICb Combined,"wild-type K-12-Pore; K-12 Pore, antibiotic in combination with PAβN",16 µg/mL
same,Effect,wild-type K-12-Pore; [11],Synergistic (Synergy (FICI ≤0.5))
same,FICI,wild-type K-12-Pore; [11],0.266
same,MICb Alone,"wild-type K-12-Pore; strain K-12 Pore, antibiotic alone",64 µg/mL
same,MICb Combined,"wild-type K-12-Pore; strain K-12 Pore, antibiotic in combination with NMP",16 µg/mL
